Source: PMC4006873 (Biochemistry, 2013)
Peptide text beside a SMILES is read from it. * marks the point of attachment. X1 = C[C@@H]1C[C@H]2[C@@H]3CCC4=CC(=O)C=C[C@]4(C)[C@@]3(F)[C@@H](O)C[C@]2(C)[C@@]1(O)C(=O)CSCCC(=O)*

Tests used:
Gal4-GR★-VP16 = target: T1, Gal4-GR★-VP16 (Homo sapiens, UniProt P04150, C638G); test: GIGI in cell lysates, stably transfected U2OS; conditions: U2OS(GIGI) cells; for Z′-factor of GIGI assay: 1 μM vs untreated, 24 h, n = 150
T1 sequence (P04150 524-758 C638G): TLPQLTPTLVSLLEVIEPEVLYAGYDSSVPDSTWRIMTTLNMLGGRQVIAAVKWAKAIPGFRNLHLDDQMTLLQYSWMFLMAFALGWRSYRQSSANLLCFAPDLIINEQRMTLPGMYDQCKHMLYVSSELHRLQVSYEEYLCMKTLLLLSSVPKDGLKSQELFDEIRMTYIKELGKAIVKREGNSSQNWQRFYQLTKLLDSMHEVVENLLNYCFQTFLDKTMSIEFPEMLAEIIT

GR★-GFP [1] = target: T2, GR★-GFP (Homo sapiens, UniProt P04150, C638G); test: High-content imaging of GIGT in stably transfected Saos-2; type: cell-based; conditions: Saos-2(GIGT) cells, 30 min; for Z′-factor of GIGT assay: 1 μM vs untreated
T2 sequence (P04150 1-777 C638G): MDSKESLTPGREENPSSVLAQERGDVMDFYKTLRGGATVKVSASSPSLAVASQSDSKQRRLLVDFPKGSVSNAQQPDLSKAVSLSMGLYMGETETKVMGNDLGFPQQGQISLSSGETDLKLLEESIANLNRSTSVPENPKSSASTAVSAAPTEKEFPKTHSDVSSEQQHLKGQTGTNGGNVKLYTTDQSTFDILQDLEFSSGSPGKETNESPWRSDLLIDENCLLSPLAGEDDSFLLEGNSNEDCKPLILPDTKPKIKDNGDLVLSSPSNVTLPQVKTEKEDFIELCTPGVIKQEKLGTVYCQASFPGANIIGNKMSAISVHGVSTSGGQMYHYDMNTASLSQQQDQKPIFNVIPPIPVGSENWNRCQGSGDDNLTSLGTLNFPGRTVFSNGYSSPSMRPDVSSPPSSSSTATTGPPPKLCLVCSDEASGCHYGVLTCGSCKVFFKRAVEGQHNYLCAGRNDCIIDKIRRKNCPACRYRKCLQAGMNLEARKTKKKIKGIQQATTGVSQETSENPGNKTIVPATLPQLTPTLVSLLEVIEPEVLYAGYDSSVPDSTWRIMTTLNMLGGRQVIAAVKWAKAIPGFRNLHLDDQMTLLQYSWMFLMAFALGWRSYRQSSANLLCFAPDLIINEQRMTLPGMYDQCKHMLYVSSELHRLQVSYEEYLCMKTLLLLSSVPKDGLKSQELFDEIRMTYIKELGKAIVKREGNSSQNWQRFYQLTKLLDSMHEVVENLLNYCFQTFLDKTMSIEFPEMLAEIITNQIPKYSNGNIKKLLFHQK

GR★-GFP [2] = target: T2, GR★-GFP; test: GIGT nuclear translocation, transiently transfected cells expressing GR★-GFP; type: cell-based; conditions: HeLa cells expressing GR★-GFP, 500 nM, 30 min
rat C656G GR = conditions: read-out: equilibrium dissociation constant (Kd), in vitro; cited from earlier work

Structure (SMILES)	eGFP expression after treatment and cell lysis (Gal4-GR★-VP16; 1 μM)	Z′-factor of GIGI assay (Gal4-GR★-VP16)	Z′-factor of GIGT assay (GR★-GFP [1])	translocation ratio (TR) (GR★-GFP [1]; 1 μM)	translocation ratio (TR) (GR★-GFP [2])	Kd (rat C656G GR)
CC[C@H](C)[C@H](NC(=O)[C@H](CC(C)C)NC(=O)[C@H](CC(=O)O)NC(=O)[C@H](CCCNC(=N)N)NC(=O)[C@@H](NC(=O)[C@@H]1CCCN1C(=O)[C@H](C)NC(=O)[C@H](CC(=O)O)NC(=O)[C@H](CC(=O)O)NC(=O)CNC(=O)[C@@H]1CCCN1C(=O)[C@H](Cc1ccc(O)cc1)NC(=O)[C@@H](NC(=O)[C@@H]1CCCN1C(=O)[C@H](CCC(N)=O)NC(=O)[C@H](CO)NC(=O)[C@@H]1CCCN1C(=O)CN)[C@@H](C)O)C(C)C)C(=O)N[C@@H](CCCNC(=N)N)C(=O)N[C@@H](Cc1ccccc1)C(=O)N[C@@H](Cc1ccc(O)cc1)C(=O)N[C@@H](CCCNC(=N)N)C(=O)N[C@@H](CC(=O)O)C(=O)N[C@@H](CC(C)C)C(=O)N[C@@H](CCCNC(=N)N)C(=O)N[C@@H](CCCNC(=N)N)C(=O)N[C@@H](Cc1ccc(O)cc1)C(=O)N[C@@H](CC(C)C)C(=O)N[C@@H](CC(N)=O)C(=O)N[C@H](C(=O)N[C@H](C(=O)N[C@H](C(=O)N[C@@H](CCCNC(=N)N)C(=O)N[C@@H](Cc1c[nH]cn1)C(=O)N[C@@H](CCCNC(=N)N)C(=O)N[C@@H](Cc1ccc(O)cc1)C(=O)N[C@@H](CCCCNC(=O)CCSCC(=O)[C@@]1(O)[C@H](C)C[C@H]2[C@@H]3CCC4=CC(=O)C=C[C@]4(C)[C@@]3(F)[C@@H](O)C[C@@]21C)C(N)=O)[C@@H](C)O)C(C)C)C(C)C [5.3^Dex] (H-GPSQPTYPGDDAPVRDLIRFYRDLRRYLNVVTRHRYK(X1)-NH2; N-terminus and C-terminus assumed)	significant eGFP expression	0.56	0.54	4.01 ± 0.30	2.79 ± 0.39	–
C[C@@H]1C[C@H]2[C@@H]3CCC4=CC(=O)C=C[C@]4(C)[C@@]3(F)[C@@H](O)C[C@]2(C)[C@@]1(O)C(=O)CO [Dex, dexamethasone]	–	–	–	–	–	0.55 nM
CC(C)C[C@H](NC(=O)[C@H](Cc1c[nH]cn1)NC(=O)[C@H](CCCNC(=N)N)NC(=O)[C@H](CO)NC(=O)[C@H](CC(C)C)NC(=O)[C@@H](NC(=O)[C@H](Cc1ccccc1)NC(=O)[C@H](C)NC(=O)[C@H](CCCCN)NC(=O)CNC(=O)[C@H](CS)NC(=O)[C@@H](NC(=O)[C@H](CC(N)=O)NC(=O)[C@H](CS)NC(=O)[C@H](CO)NC(=O)[C@H](Cc1ccc(O)cc1)NC(=O)[C@@H](N)Cc1c[nH]c2ccccc12)C(C)C)C(C)C)C(=O)N[C@@H](CC(N)=O)C(=O)N[C@@H](CCCNC(=N)N)C(=O)N[C@@H](Cc1c[nH]cn1)C(=O)N[C@@H](CC(C)C)C(=O)N[C@@H](CCCNC(=N)N)C(=O)N[C@H](C(=O)N[C@@H](Cc1c[nH]cn1)C(=O)N[C@@H](CCCNC(=N)N)C(=O)N[C@@H](CCCNC(=N)N)C(=O)N[C@@H](C)C(=O)N[C@H](C(=O)N[C@@H](CCCCNC(=O)CCSCC(=O)[C@@]1(O)[C@H](C)C[C@H]2[C@@H]3CCC4=CC(=O)C=C[C@]4(C)[C@@]3(F)[C@@H](O)C[C@@]21C)C(N)=O)[C@@H](C)O)C(C)C [ZF5.3^Dex] (H-WYSCNVCGKAFVLSRHLNRHLRVHRRATK(X1)-NH2; N-terminus and C-terminus assumed)	–	0.42	0.56	–	–	–
